Test results reported in ChEMBL document CHEMBL5532723, “Advances in Targeted Therapies for Inflammatory Diseases and Cancer: Exploring Cellular Mechanisms and Therapeutic Strategies” (ACS Med Chem Lett, 2024).

Tests used:
[1] = target: T1, Protein cereblon/Interleukin-1 receptor-associated kinase 4 (Homo sapiens, UniProt Q9NWZ3+Q96SW2); assay: PROTAC activity at CRBN/IRAK4 in human KARPAS-299 cells assessed as induction of IRAK4 degradation incubated for 24 hrs by TR-FRET assay; type: cell-based
Target sequence in this assay (Q9NWZ3 whole entry): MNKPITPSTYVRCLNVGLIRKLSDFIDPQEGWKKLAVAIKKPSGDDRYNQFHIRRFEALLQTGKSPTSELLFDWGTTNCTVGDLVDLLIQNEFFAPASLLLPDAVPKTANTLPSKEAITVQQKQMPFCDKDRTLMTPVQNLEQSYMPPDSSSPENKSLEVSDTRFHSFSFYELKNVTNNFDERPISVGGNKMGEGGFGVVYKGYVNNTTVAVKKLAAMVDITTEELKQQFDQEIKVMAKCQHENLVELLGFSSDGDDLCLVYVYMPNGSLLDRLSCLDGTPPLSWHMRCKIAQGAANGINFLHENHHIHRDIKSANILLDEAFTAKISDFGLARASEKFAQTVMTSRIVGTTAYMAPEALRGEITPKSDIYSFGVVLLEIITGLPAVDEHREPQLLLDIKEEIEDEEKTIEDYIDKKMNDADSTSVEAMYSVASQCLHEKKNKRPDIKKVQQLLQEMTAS
Target sequence in this assay (Q96SW2 whole entry): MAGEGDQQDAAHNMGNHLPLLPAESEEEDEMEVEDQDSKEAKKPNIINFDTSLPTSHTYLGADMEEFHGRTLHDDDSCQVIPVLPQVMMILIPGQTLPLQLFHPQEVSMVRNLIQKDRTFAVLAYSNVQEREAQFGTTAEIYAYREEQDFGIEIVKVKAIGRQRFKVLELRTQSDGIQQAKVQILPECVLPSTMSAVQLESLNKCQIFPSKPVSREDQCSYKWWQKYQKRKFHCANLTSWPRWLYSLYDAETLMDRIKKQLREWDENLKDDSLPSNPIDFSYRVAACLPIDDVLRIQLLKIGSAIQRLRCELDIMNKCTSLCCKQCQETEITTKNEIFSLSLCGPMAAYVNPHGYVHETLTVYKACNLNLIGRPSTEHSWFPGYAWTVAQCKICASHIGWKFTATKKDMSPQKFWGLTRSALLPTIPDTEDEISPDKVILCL

[2] = target: T1, Protein cereblon/Interleukin-1 receptor-associated kinase 4; assay: PROTAC activity at CRBN/IRAK4 in human KARPAS-299 cells assessed as induction of IRAK4 degradation incubated for 24 hrs by TR-FRET assay relative to control; type: cell-based
Target sequence in this assay (Q96SW2 whole entry, looked up): as the sequence (Q96SW2 whole entry) above
Target sequence in this assay (Q9NWZ3 whole entry, looked up): as the sequence (Q9NWZ3 whole entry) above

| DC50 [1] | Emax [2] | SMILES |
| --- | --- | --- |
| 3.7 nM | 99% | CC(C)(O)c1cc2nn([C@H]3CC[C@H](N4CCN(CCc5cc(F)c([C@H]6CCC(=O)NC6=O)c(F)c5)CC4)CC3)cc2cc1NC(=O)c1ccc2cc(C#N)cnn12 |
| 5.2 nM | 94% | CC(C)(O)c1cc2nn(C34CC(N5CCN(CCc6cc(F)c([C@H]7CCC(=O)NC7=O)c(F)c6)CC5)(C3)C4)cc2cc1NC(=O)c1ccc2cc(C#N)cnn12 |
| 11 nM | 99% | CC(C)(O)c1cc2nn([C@H]3C[C@H](N4CCN(C(=O)C5CN(c6cc(F)c([C@H]7CCC(=O)NC7=O)c(F)c6)C5)CC4)C3)cc2cc1NC(=O)c1ccc2cc(C#N)cnn12 |
| 8.3 nM | 100% | CC(C)(O)c1cc2nn([C@H]3CC[C@H](N4CCN(C5CN(c6cc(F)c([C@H]7CCC(=O)NC7=O)c(F)c6)C5)CC4)CC3)cc2cc1NC(=O)c1ccc2cc(C#N)cnn12 |
| 3.9 nM | 101% | CC(C)(O)c1cc2nn(C34CCC(N5CCN(CCc6cc(F)c([C@H]7CCC(=O)NC7=O)c(F)c6)CC5)(CC3)CC4)cc2cc1NC(=O)c1ccc2cc(C#N)cnn12 |
| 7.1 nM | 100% | CC(C)(O)c1cc2nn([C@H]3CC[C@H](N4CCN(CCNc5cc(F)c(C6CCC(=O)NC6=O)c(F)c5)CC4)CC3)cc2cc1NC(=O)c1ccc2cc(C#N)cnn12 (some centres not stated) |
